Source: patent publication US6479447B2, “Bleaching composition for dry cleaning containing transition metal bleach catalyst” (Unilever Home & Personal Care USA, division of Conopco, Inc., priority 1999, dated 2002)

Test: log P, partitioning between octanol and water
Format: physicochemical
Settings: octanol/water at 25° C.; usually determined with hexafluorophosphate as counterion
Protocol: To the skilled person, log P is a well known coefficient for describing the partitioning of a compound between octanol and water at ambient temperature (25° C.). Whereby P is the concentration of the bleach catalyst in octanol divided by the concentration of bleach catalyst in water. (Leo et al. Chem Rev 1971, 71, 525). The log P is usually determined in the presence of hexafluorophophate as the counterion.

Molecule: CN1CCN(C)CCN(C)CC1.CN1CCN(C)CCN(C)CC1.F[P-](F)(F)(F)(F)F.F[P-](F)(F)(F)(F)F.[Mn+4].[Mn+4].[O-2].[O-2].[O-2] [Catalyst 1, Dimanganese-tris-μ-oxo-bis(1,4,7-trimethyl-1,4,7-triazacyclononane) bis(Hexafluorophosphate)]
- log P: less than 3

Molecule: Dimanganese-tris-μ-oxo-bis(2-octyl-1,4,7-trimethyl-1,4,7-triazacyclononane) bis(Hexasulphate) [Catalyst 2]
- log P: more than 3
